Assay results taken from ChEMBL document CHEMBL1201862, “PubChem BioAssay data set” (2004).
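Test compounds were applied to cells in 96-well plates for 48 hours at 5 doses. Abbreviation: GI50, concentration required for 50% inhibition of growth.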 Active and inactive are the calls of the source. No stated cut-off is given here; in the data, active = GI50 up to about 1.1 µM and inactive = higher.

Legend:
Assay in all cases: inhibition of tumour cell growth, NCI panel, 48 h
[1] = test system: COLO 205
[2] = test system: EKVX
[3] = test system: IGROV-1
[4] = test system: K562
[5] = test system: M14
[6] = test system: NCI-H23
[7] = test system: OVCAR-3
[8] = test system: OVCAR-4
[9] = test system: OVCAR-8
[10] = test system: SK-MEL-28
[11] = test system: SK-MEL-5
[12] = test system: SK-OV-3
[13] = test system: SNB-19
[14] = test system: TK-10
[15] = test system: UO-31

Measured: GI50

Cc1cccc(NC(=O)/C=C/c2ccc(N(CCC#N)CCC#N)cc2C)c1
inactive: [1] > 100 µM | [2] > 100 µM | [3] > 100 µM | [4] 16.8 µM | [5] > 100 µM | [6] > 100 µM | [7] > 100 µM | [8] > 100 µM | [9] > 100 µM | [10] > 100 µM | [11] > 100 µM | [12] > 100 µM | [13] > 100 µM | [14] > 100 µM | [15] 24.5 µM

CCOC(=O)CSc1cc[nH]c(=O)n1
inactive: [1] > 100 µM | [2] > 100 µM | [3] > 100 µM | [4] > 100 µM | [5] > 100 µM | [7] > 100 µM | [9] > 100 µM | [11] > 100 µM | [12] > 100 µM | [13] > 100 µM | [14] > 100 µM | [15] > 100 µM

CCCCNC(=O)OCC(COc1ccccc1OC)OC(=O)NCCCC (configuration not stated)
inactive: [1] > 100 µM | [2] > 100 µM | [3] > 100 µM | [4] 68.5 µM | [5] > 100 µM | [6] > 100 µM | [7] > 100 µM | [8] > 100 µM | [9] > 100 µM | [10] > 100 µM | [11] 87.5 µM | [12] > 100 µM | [13] > 100 µM | [14] > 100 µM | [15] 63.8 µM

COC(=O)N(C(=O)OC)C(C(=O)O)C(C)C (configuration not stated)
inactive: [1] > 100 µM | [2] > 100 µM | [5] > 100 µM | [6] > 100 µM | [8] > 100 µM | [9] > 100 µM | [10] > 100 µM | [13] > 100 µM | [14] > 100 µM | [15] > 100 µM

CCOC(=O)NN1C(=O)C(=P(c2ccccc2)(c2ccccc2)c2ccccc2)C(C(=O)OC)=C1C
inactive: [1] > 100 µM | [2] > 100 µM | [3] > 100 µM | [4] > 100 µM | [5] > 100 µM | [6] > 100 µM | [7] > 100 µM | [8] > 100 µM | [9] > 100 µM | [11] > 100 µM | [12] > 100 µM | [13] > 100 µM | [14] > 100 µM | [15] > 100 µM

COc1ccc(C2=Nc3ccccc3SC(C)C2)cc1OC (configuration not stated)
inactive: [1] 20.4 µM | [2] 24.5 µM | [3] 14.6 µM | [4] 25.5 µM | [5] 18.6 µM | [6] 17.7 µM | [7] 16.6 µM | [8] 22.1 µM | [9] 22.8 µM | [10] 24.6 µM | [11] 17.9 µM | [12] 20.3 µM | [13] 20.2 µM | [14] 29.8 µM | [15] 17.8 µM

CCCCCCCCCCCc1noc2c1C(=O)C(O)CC2 (configuration not stated)
inactive: [1] 30.5 µM | [2] 33.5 µM | [3] 50 µM | [4] 17.2 µM | [5] 27.2 µM | [6] 16.3 µM | [7] 17.5 µM | [8] 16.6 µM | [9] 18.9 µM | [10] 23.8 µM | [11] 14.6 µM | [12] 25.7 µM | [13] 22.1 µM | [14] 56.6 µM | [15] 23.3 µM

CCCCN(CCCC)C(=O)C(=O)CC(=O)/C=C/c1ccccc1
inactive: [1] > 100 µM | [2] > 100 µM | [3] > 100 µM | [4] > 100 µM | [5] > 100 µM | [6] > 100 µM | [7] > 100 µM | [8] > 100 µM | [9] > 100 µM | [10] > 100 µM | [11] > 100 µM | [12] > 100 µM | [13] > 100 µM | [14] > 100 µM | [15] > 100 µM

Cn1cc(-c2ccc3c4ccccc4n(C)c3c2)c2ccccc21
inactive: [1] > 100 µM | [2] > 100 µM | [3] > 100 µM | [4] 67.9 µM | [5] > 100 µM | [6] > 100 µM | [7] > 100 µM | [8] > 100 µM | [9] > 100 µM | [10] > 100 µM | [11] > 100 µM | [12] > 100 µM | [13] > 100 µM | [14] > 100 µM | [15] > 100 µM

CCOc1ccc(NC(=O)/C(=C\c2ccc(C)cc2)C(C)=O)cc1
inactive: [1] > 100 µM | [2] > 100 µM | [3] > 100 µM | [4] > 100 µM | [5] > 100 µM | [6] > 100 µM | [7] > 100 µM | [8] > 100 µM | [9] > 100 µM | [10] > 100 µM | [11] > 100 µM | [12] > 100 µM | [13] > 100 µM | [14] > 100 µM | [15] > 100 µM

CS(=O)(=O)NNS(=O)(=O)c1cccc([N+](=O)[O-])c1
inactive: [1] > 100 µM | [2] > 100 µM | [3] > 100 µM | [4] > 100 µM | [5] > 100 µM | [6] > 100 µM | [8] > 100 µM | [9] > 100 µM | [11] > 100 µM | [13] > 100 µM | [14] > 100 µM | [15] > 100 µM

COc1ccc2c(C3(O)CCNCC3)c[nH]c2c1
inactive: [1] > 100 µM | [2] > 100 µM | [3] > 100 µM | [4] > 100 µM | [5] > 100 µM | [6] > 100 µM | [7] > 100 µM | [8] > 100 µM | [9] > 100 µM | [10] > 100 µM | [11] > 100 µM | [12] > 100 µM | [13] > 100 µM | [14] > 100 µM | [15] > 100 µM

CC1(C)CCc2cc3c(cc2O1)OCCC3=O
inactive: [1] > 100 µM | [2] > 100 µM | [3] > 100 µM | [4] > 100 µM | [5] > 100 µM | [6] > 100 µM | [7] > 100 µM | [8] > 100 µM | [9] > 100 µM | [11] > 100 µM | [12] > 100 µM | [13] > 100 µM | [14] > 100 µM | [15] 94.2 µM

CC1(O)C(C)(O)C(C)(O)C1(C)O (configuration not stated)
inactive: [1] > 100 µM | [2] > 100 µM | [3] > 100 µM | [4] > 100 µM | [5] > 100 µM | [6] > 100 µM | [7] > 100 µM | [8] > 100 µM | [9] > 100 µM | [10] > 100 µM | [11] > 100 µM | [12] > 100 µM | [13] > 100 µM | [14] > 100 µM | [15] > 100 µM

NC(CCc1ncc(C(=O)O)s1)C(=O)O (configuration not stated)
inactive: [1] > 100 µM | [2] > 100 µM | [3] > 100 µM | [4] > 100 µM | [5] > 100 µM | [6] > 100 µM | [7] > 100 µM | [9] > 100 µM | [10] > 100 µM | [11] > 100 µM | [12] > 100 µM | [13] > 10 µM | [14] > 100 µM | [15] > 100 µM

NCc1cccc(O)c1O
inactive: [1] > 100 µM | [2] > 100 µM | [4] > 100 µM | [5] > 100 µM | [7] > 100 µM | [8] > 100 µM | [9] > 100 µM | [10] > 100 µM | [11] > 100 µM | [12] > 100 µM | [13] > 100 µM | [14] > 100 µM | [15] > 100 µM

O=C1Nc2ccc(Br)cc2/C1=N/Nc1ccc([N+](=O)[O-])cc1[N+](=O)[O-]
inactive: [1] 2.47 µM | [2] 11.3 µM | [3] 7.74 µM | [4] 3.05 µM | [5] 4.8 µM | [6] 2.49 µM | [7] 5.82 µM | [9] 3.93 µM | [10] 3.33 µM | [11] 1.83 µM | [12] 12.5 µM | [13] 4.71 µM | [14] 17.1 µM | [15] 2.48 µM

O=C(c1ccccc1)c1c(CC(O)c2ccccn2)n(C(=O)c2ccccc2)c2ccccc12 (configuration not stated)
inactive: [1] 23.1 µM | [3] 23.7 µM | [4] 27.9 µM | [5] 18.9 µM | [6] 22.1 µM | [7] 17.5 µM | [8] 21.8 µM | [9] 29.2 µM | [10] 20.4 µM | [11] 13.9 µM | [13] 34.1 µM | [14] 38.4 µM | [15] 22.1 µM

COc1ccc2c(=O)c(C)c(-c3ccccc3)oc2c1CN(C)C [DIMEFLINE]
inactive: [1] > 100 µM | [3] > 100 µM | [4] > 100 µM | [5] > 100 µM | [6] > 100 µM | [8] > 100 µM | [9] > 100 µM | [11] > 100 µM | [12] > 100 µM | [13] > 100 µM | [14] > 100 µM | [15] > 100 µM

C=C1C[C@]23C[C@@]1(O)CC[C@H]2[C@@]12C=C[C@H](O)[C@@](C)(C(=O)O1)[C@H]2[C@@H]3C(=O)O [GIBBERELLIN A3]
inactive: [1] > 100 µM | [2] > 100 µM | [3] > 100 µM | [4] > 100 µM | [5] > 100 µM | [6] > 100 µM | [7] > 100 µM | [8] > 100 µM | [10] > 100 µM | [11] > 100 µM | [12] > 100 µM | [13] > 100 µM | [14] > 100 µM | [15] > 100 µM
